From PMC6986443, “T‐495, a novel low cooperative M1 receptor positive allosteric modulator, improves memory deficits associated with cholinergic dysfunction and is characterized by low gastrointestinal side effect risk” (Pharmacology Research & Perspectives, 2020)

What was measured:
[1] = test system: CaMKIIα‐tTA/A53T α‐syn dTg mice; assay: Y‐maze task; format: in vivo, mouse; settings: 3 mg/kg p.o.
Experimental: The Y‐maze was fabricated from gray plastic and consisted of three arms (40 cm long, 12 cm high, 3 cm wide at the bottom, and 10 cm wide at the top) with an angle of 120°. Visual cues were placed outside each arm, and the apparatus was illuminated at 10 lux. […] An arm entry was defined as all four paws of the mouse being in the arm, and the sequence of arm entries was monitored with a video camera and counted manually. An alternation was defined as successive entries into the three arms on overlapping triplet sets.36 The percentage of alternation was calculated as the ratio of actual to possible alternations (total number of arm entries minus 2) multiplied by 100.

[2] = molecular target: T1, human M1R (Homo sapiens, UniProt P11229); assay: [3H]‐NMS binding assay; parameters: expressed in transfected cells
T1 sequence (P11229 1-460): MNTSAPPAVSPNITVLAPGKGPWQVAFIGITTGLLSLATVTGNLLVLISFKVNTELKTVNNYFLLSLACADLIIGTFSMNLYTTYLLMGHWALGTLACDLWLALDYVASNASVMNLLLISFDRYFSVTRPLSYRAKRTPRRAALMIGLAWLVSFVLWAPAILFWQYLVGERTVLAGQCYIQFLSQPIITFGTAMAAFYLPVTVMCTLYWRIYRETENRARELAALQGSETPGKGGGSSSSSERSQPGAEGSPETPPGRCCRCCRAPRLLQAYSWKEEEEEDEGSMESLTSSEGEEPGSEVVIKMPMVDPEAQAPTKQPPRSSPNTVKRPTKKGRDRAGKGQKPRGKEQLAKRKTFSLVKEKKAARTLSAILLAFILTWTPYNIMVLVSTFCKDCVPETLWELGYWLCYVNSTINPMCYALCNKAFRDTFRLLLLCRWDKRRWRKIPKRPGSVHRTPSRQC
Experimental: Cell membranes from FreeStyle 293 cells transiently expressing human M1R were incubated with T‐495 (0.01‐30 μmol/L) and 0.2 nmol/L [^3H]‐NMS (PerkinElmer) in assay buffer as described above. After 2 hours at room temperature, the binding was terminated by filtration through GF/C filter plates using a cell harvester and washed five times with 300 μl of 50 mmol/L Tris‐HCl. GF/C plates were dried at 42°C and then 25 μl of microscint 0 was added. Radioactivity was measured by Topcount.

[3] = molecular target: T2, Vasopressin V1A (Homo sapiens, UniProt P37288); assay: Selectivity panel; format: binding
T2 construct: purchased Eurofins Panlabs Taiwan Ltd
T2 sequence (P37288 whole entry): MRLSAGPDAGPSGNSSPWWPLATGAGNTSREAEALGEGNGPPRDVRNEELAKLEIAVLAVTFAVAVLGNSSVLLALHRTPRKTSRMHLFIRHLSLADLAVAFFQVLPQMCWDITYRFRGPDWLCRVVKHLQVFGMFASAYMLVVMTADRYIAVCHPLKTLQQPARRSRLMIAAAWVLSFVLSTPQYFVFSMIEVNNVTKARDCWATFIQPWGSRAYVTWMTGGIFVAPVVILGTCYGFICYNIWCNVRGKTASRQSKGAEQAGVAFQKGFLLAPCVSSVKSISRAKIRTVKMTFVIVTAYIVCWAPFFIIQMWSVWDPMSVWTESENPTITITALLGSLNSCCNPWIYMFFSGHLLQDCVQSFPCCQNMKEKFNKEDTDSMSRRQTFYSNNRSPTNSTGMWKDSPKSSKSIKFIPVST
Text: (§1) The selectivity of T‐495 at 10 μmol/L against a panel of 106 targets, including receptors, enzymes, ion channels, and transporters, was characterized (Eurofins Panlabs Taiwan Ltd., Taipei, Taiwan).

[4] = molecular target: T3, Serotonin 5-HT2A (Homo sapiens, UniProt P28223); assay: Selectivity panel; format: binding
T3 construct: purchased Eurofins Panlabs Taiwan Ltd
T3 sequence (P28223 whole entry): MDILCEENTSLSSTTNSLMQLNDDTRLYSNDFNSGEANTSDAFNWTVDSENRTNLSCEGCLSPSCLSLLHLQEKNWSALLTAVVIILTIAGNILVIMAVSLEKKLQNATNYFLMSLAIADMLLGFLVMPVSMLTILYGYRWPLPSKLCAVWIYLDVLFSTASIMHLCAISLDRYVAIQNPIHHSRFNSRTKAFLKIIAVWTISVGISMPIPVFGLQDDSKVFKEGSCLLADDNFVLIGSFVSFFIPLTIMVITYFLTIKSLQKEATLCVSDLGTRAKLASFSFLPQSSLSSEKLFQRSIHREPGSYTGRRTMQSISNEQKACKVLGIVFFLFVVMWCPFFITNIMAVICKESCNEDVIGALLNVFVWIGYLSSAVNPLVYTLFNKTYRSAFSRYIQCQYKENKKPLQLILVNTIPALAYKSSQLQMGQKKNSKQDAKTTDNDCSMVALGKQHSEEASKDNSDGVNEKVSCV
Text: as §1

[5] = molecular target: T4, Adenosine A1 (Homo sapiens, UniProt P30542); assay: Selectivity panel; format: binding
T4 construct: purchased Eurofins Panlabs Taiwan Ltd
T4 sequence (P30542 whole entry): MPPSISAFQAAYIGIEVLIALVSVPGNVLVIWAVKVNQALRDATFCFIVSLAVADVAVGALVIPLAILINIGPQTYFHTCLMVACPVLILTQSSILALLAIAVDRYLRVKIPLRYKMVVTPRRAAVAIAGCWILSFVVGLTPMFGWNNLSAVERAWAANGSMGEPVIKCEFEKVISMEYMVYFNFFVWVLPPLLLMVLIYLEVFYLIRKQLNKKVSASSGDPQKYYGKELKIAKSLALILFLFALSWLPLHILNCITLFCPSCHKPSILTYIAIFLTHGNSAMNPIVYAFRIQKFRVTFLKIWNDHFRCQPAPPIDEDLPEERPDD
Text: as §1

[6] = test system: GABAA, muscimol, central; assay: Selectivity panel; format: binding
Text: as §1

[7] = molecular target: T5, Adrenergic β2 (Homo sapiens, UniProt P07550); assay: Selectivity panel; format: binding
T5 construct: purchased Eurofins Panlabs Taiwan Ltd
T5 sequence (P07550 whole entry): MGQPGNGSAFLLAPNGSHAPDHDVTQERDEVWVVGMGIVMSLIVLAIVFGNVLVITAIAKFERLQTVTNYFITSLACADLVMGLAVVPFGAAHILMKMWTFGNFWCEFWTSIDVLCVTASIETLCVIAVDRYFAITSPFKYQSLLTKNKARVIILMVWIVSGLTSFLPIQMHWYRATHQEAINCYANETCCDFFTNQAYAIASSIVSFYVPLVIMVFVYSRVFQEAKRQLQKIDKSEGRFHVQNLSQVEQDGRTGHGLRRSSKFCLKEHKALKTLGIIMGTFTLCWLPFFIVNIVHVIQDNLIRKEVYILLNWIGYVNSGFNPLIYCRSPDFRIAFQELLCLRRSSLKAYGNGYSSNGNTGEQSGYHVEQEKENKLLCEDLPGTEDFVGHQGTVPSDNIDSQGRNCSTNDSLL
Text: as §1

[8] = molecular target: T6, Angiotensin AT2 (Homo sapiens, UniProt P50052); assay: Selectivity panel; format: binding
T6 construct: purchased Eurofins Panlabs Taiwan Ltd
T6 sequence (P50052 whole entry): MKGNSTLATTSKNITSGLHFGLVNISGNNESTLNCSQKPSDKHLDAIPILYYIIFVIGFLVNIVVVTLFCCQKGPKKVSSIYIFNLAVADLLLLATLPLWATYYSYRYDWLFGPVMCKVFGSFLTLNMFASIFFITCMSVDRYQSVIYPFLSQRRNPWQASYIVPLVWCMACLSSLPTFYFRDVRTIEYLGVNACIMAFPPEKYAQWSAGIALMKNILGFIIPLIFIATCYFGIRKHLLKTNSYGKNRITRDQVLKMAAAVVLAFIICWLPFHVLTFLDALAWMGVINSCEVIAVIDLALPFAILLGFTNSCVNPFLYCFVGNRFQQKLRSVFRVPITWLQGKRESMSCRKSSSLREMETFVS
Text: as §1

[9] = molecular target: T7, Cholecystokinin CCK2 (CCKB) (Homo sapiens, UniProt P32239); assay: Selectivity panel; format: binding
T7 construct: purchased Eurofins Panlabs Taiwan Ltd
T7 sequence (P32239 whole entry): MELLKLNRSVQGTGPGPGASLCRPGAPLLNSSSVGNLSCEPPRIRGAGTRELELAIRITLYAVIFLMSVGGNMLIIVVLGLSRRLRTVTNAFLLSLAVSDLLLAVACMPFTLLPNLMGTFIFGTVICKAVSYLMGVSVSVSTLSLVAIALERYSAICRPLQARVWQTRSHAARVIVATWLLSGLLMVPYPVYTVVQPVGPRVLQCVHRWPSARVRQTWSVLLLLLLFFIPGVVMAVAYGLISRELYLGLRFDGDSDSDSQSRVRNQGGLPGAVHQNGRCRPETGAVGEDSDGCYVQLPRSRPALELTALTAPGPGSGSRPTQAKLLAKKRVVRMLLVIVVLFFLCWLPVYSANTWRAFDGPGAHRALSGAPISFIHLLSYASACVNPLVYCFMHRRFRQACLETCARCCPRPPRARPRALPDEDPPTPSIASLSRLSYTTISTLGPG
Text: as §1

[10] = molecular target: T8, Muscarinic M1 (Homo sapiens, UniProt P11229); assay: Selectivity panel; format: binding
T8 construct: purchased Eurofins Panlabs Taiwan Ltd
Text: as §1

[11] = test system: Glycine, strychnine-sensitive; assay: Selectivity panel; format: binding
Text: as §1

[12] = molecular target: T9, Cannabinoid CB1 (Homo sapiens, UniProt P21554); assay: Selectivity panel; format: binding
T9 construct: purchased Eurofins Panlabs Taiwan Ltd
T9 sequence (P21554 whole entry): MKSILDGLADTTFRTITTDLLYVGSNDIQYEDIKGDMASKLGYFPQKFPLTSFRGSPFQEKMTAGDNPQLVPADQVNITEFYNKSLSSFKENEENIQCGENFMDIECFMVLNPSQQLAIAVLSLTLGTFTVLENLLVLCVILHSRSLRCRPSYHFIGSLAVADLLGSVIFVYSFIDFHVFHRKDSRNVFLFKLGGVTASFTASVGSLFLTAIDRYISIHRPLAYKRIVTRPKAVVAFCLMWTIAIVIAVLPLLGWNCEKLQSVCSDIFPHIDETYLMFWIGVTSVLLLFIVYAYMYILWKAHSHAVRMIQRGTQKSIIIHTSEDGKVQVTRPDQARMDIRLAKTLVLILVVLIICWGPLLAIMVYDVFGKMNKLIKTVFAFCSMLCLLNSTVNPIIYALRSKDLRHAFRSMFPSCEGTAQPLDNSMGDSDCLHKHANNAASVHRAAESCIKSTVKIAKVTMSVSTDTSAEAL
Text: as §1

[13] = molecular target: T10, Vasopressin V2 (Homo sapiens, UniProt P30518); assay: Selectivity panel; format: binding
T10 construct: purchased Eurofins Panlabs Taiwan Ltd
T10 sequence (P30518 whole entry): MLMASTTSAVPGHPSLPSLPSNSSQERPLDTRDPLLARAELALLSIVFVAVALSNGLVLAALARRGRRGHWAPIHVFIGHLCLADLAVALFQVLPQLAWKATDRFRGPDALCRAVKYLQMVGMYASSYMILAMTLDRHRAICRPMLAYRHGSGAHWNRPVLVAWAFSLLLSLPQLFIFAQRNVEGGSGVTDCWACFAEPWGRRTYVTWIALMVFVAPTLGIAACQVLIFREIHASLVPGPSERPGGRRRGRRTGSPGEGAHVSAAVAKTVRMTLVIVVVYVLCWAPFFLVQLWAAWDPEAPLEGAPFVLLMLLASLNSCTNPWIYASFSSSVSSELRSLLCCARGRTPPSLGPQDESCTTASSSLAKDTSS
Text: as §1

[14] = test system: CaMKIIα‐tTA/A53T α‐syn dTg mice; assay: Contextual fear conditioning (CFC) test; format: in vivo, mouse
Experimental: The CFC test was performed in a clear conditioning chamber (33 cm wide, 25 cm long, and 28 cm high; O’Hara & Co., Ltd.) surrounded by a sound‐attenuating box. The illumination in the chamber was maintained at 100 lux. Conditioned stimulus (CS) and unconditioned stimulus (US) were automatically delivered by a tone generator and a shock generator (O’Hara & Co., Ltd.), respectively. On Day 1 (habituation phase), vehicle was orally administered, and mice were placed in the conditioning chamber. They were allowed to freely explore for 120 seconds and then returned to their home cages. […] Mice were placed in the chamber for 120 seconds before the onset of a tone (CS, 60 dB for 30 s). The last 2 seconds of the CS were paired with a foot shock (US, 0.25 mA), and mice were removed and returned to their home cages 180 seconds after the US. […] Mice were again placed in the same chamber for 180 seconds. Freezing behavior was analyzed using ImageJ FZ4 (O’Hara & Co., Ltd.) during the conditioning and retention phases.

[15] = test system: ileum segment of ICR mice; assay: Spontaneous ileum contraction; parameters: species or system mouse; settings: 0.01, 0.1, and 1 μmol/L applied cumulatively
Experimental: ICR mice were fasted overnight and sacrificed by decapitation, and the ileum was removed and the luminal contents were gently flushed out with ice‐cold modified Krebs buffer (NaCl, 120.7 mmol/L; KCl, 5.9 mmol/L; NaHCO3, 15.5 mmol/L; MgCl2, 1.2 mmol/L; NaH2PO4, 1.2 mmol/L; CaCl2, 2.5 mmol/L; glucose, 11.5 mmol/L). The ileum segment (approximately 5 mm in length) was suspended in a 10‐mL organ bath filled with oxygenated (95% O2 and 5% CO2) modified Krebs buffer at 37°C. One end of the ileum segment was tied to a hook and the other end was secured with a silk thread to an isometric force transducer (MLT050/A, ADInstruments) connected to a data acquisition system (PowerLab 8/30 ML870 and Octal Bridge Amp ML228, ADInstruments). The ileum segment was subjected to an initial tension of 0.3 to 0.4 g and was allowed to equilibrate for at least 30 minutes. After the equilibration period, spontaneous contractions were measured for 3 minutes (pretreatment) and then increasing concentrations of a test compound (0.01, 0.1, and 1 μmol/L) were cumulatively applied at 3‐minute intervals. LabChart software (ADInstruments) was used to analyze the spontaneous contractions. The mean amplitude of spontaneous contractions at each concentration was normalized to that observed at pretreatment.

[16] = test system: selectivity panel; settings: cited from earlier work

Row | Compound | reduced percentage of alternations [1] | concentration without inhibition of [3H]‐NMS binding relative to that required for procognitive efficacy [2] | inhibition of [3H]‐NMS binding to M1R ([2]; T‐495 concentrations below 30 μmol/L) | inhibition at 10 µM [3] [%] | inhibition at 10 µM [4] [%] | inhibition at 10 µM [5] [%] | % inhibition at 10 μM [6] [%] | inhibition at 10 µM [7] [%] | inhibition at 10 µM [8] [%] | inhibition at 10 µM [9] [%] | inhibition at 10 µM [10] [%] | % inhibition at 10 μM [11] [%] | inhibition at 10 µM [12] [%] | inhibition at 10 µM [13] [%] | level of freezing behavior during the conditioning phase ([14]; 3 mg/kg p.o.) | reduced level of freezing behavior during the retention phase ([14]; 3 mg/kg p.o. 1 h before conditioning and retention) | concentration at which spontaneous ileum contraction was increased [15] [µmol/L] | selectivity in a selectivity panel [16]
1 | Cc1c(Cc2ccc(Cl)nc2)cc2c(c1Cl)OCN([C@H]1CCC[C@@H]1O)C2=O [T‐495, 8‐chloro‐6‐((6‐chloropyridin‐3‐yl)methyl)‐3‐((1S,2S)‐2‐hydroxycyclopentyl)‐7‐methyl‐2,3‐dihydro‐4H‐1,3‐benzoxazin‐4‐one] | significantly reversed | up to 100 fold | did not inhibit | 7 | 20 | 15 | -1 | 15 | 0 | 10 | 15 | 9 | 14 | -7 | did not change | significantly reversed | 1 | 
2 | Cc1ccc(Cc2cc3c(=O)n([C@H]4CCCC[C@@H]4O)cnc3c3ccccc23)cn1 [MK‐7622, 3‐((1S,2S)‐2‐hydroxycyclohexyl)‐6‐((6‐methylpyridin‐3‐yl)methyl)benzo[h]quinazolin‐4(3H)‐one, reference compound] |  |  |  |  |  |  |  |  |  |  |  |  |  |  |  |  | ≤ 0.01 | exhibited inhibitory activities only against 5‐lipoxygenase and phosphodiesterase 4
